Patent US20170334927A1 (Shanghai Sun-sail Pharmaceutical Science & Technology Co., …, priority 2014, published 2017)
In brackets after ≈: the same amount, converted by molar mass.

Assays:
Assay in all cases: microbe, parasite or virus in culture
Format in all cases: cell-based
[1] = system: drug-resistant Mycobacterium tuberculosis 246 (streptomycin-resistant); conditions: for MIC: Mycobacterium tuberculosis, read-out: MIC, drug-resistant bacterium 246 (S single-resistant); for MIC value, times of that of the control drug PA-824, strain 246: relative to PA-824
[2] = system: drug-resistant Mycobacterium tuberculosis 242 (isoniazid-resistant); conditions: for MIC: Mycobacterium tuberculosis, read-out: MIC, drug-resistant bacterium 242 (H single-resistant); for MIC value, times of that of the control drug PA-824, strain 242: relative to PA-824
[3] = system: drug-resistant Mycobacterium tuberculosis 261 (rifampicin-resistant); conditions: for MIC: Mycobacterium tuberculosis, read-out: MIC, drug-resistant bacterium 261 (R single-resistant); for MIC value, times of that of the control drug PA-824, strain 261: relative to PA-824

SMILES	MIC [1]	MIC value, times of that of the control drug PA-824, strain 246 [1]	MIC [2]	MIC value, times of that of the control drug PA-824, strain 242 [2]	MIC [3]	MIC value, times of that of the control drug PA-824, strain 261 [3]
O=[N+]([O-])c1cn2c(n1)OC[C@@H](NCc1ccc(N3CCC(Oc4ccc(OC(F)(F)F)cc4)CC3)nc1)C2 [Compound 1, (S)-2-nitro-N-((6-(4-(4-(trifluoromethoxy)phenoxy)piperidin-1-yl)pyrid-3-yl)methyl)-6,7-dihydro-5H-imidazo[2,1-b][1,3]oxazin-6-amine]	7.8 ng/mL (≈ 0.0146 µM)	64 times	7.8 ng/mL (≈ 0.0146 µM)	128 times	7.8 ng/mL (≈ 0.0146 µM)	64 times
O=[N+]([O-])c1cn2c(n1)OC[C@@H](NCc1ccc(N3CCN(c4ccc(OC(F)(F)F)cc4)CC3)nc1)C2 [Compound 4, (S)-2-nitro-N-((6-(4-(4-(trifluoromethoxy)phenyl)piperazin-1-yl)pyrid-3-yl)methyl)-6,7-dihydro-5H-imidazo[2,1-b][1,3]oxazin-6-amine]	1.95 ng/mL (≈ 0.00375 µM)	256 times	1.95 ng/mL (≈ 0.00375 µM)	512 times	1.95 ng/mL (≈ 0.00375 µM)	256 times
CC1CN(c2ccc(CN[C@@H]3COc4nc([N+](=O)[O-])cn4C3)cn2)CCN1c1ccc(OC(F)(F)F)cc1 (stereo partly drawn) [Compound 5, (3S)—N-((6-(3-methyl-4-(4-(trifluoromethoxy)phenyl)piperazin-1-yl)pyrid-3-yl)methyl)-7-nitro-3,4-dihydro-2H-imidazo[2,1-b][1,3]oxazin-3-amine]	1.95 ng/mL (≈ 0.00366 µM)	–	3.9 ng/mL (≈ 0.00731 µM)	–	1.95 ng/mL (≈ 0.00366 µM)	–
CC1CN(c2ccc(OC(F)(F)F)cc2)CCN1c1ccc(CN[C@@H]2COc3nc([N+](=O)[O-])cn3C2)cn1 (stereo partly drawn) [Compound 6, (3S)—N-((6-(2-methyl-4-(4-(trifluoromethoxy)phenyl)piperazin-1-yl)pyrid-3-yl)methyl)-7-nitro-3,4-dihydro-2H-imidazo[2,1-b][1,3]oxazin-3-amine]	7.8 ng/mL (≈ 0.0146 µM)	–	15.6 ng/mL (≈ 0.0292 µM)	–	7.8 ng/mL (≈ 0.0146 µM)	–
N#CC1(c2ccc(OC(F)(F)F)cc2)CCN(c2ccc(CN[C@@H]3COc4nc([N+](=O)[O-])cn4C3)cn2)CC1 [Compound 10, (S)-1-(5-(((7-nitro-3,4-dihydro-2H-imidazo[2,1-b][1,3]oxazin-3-yl)amino)methyl)pyridin-2-yl)-4-(4-(trifluoromethoxy)phenyl)piperidine-4-carbonitrile]	1.95 ng/mL (≈ 0.00359 µM)	256 times	1.95 ng/mL (≈ 0.00359 µM)	512 times	1.95 ng/mL (≈ 0.00359 µM)	256 times
O=[N+]([O-])c1cn2c(n1)OC[C@@H](NCc1ccc(N3C4CCC3CC(Oc3ccc(OC(F)(F)F)cc3)C4)nc1)C2 (stereo partly drawn) [Compound 14, (6S)-2-nitro-N-((6-(3-(4-(trifluoromethoxy)phenoxy)-8-azabicyclo[3.2.1]octan-8-yl)pyrid-3-yl)methyl)-6,7-dihydro-5H-imidazo[2,1-b][1,3]oxazin-6-amine]	7.8 ng/mL (≈ 0.0139 µM)	–	15.6 ng/mL (≈ 0.0278 µM)	–	7.8 ng/mL (≈ 0.0139 µM)	–
O=[N+]([O-])c1cn2c(n1)OC[C@@H](NCc1cnc(N3CCN(c4ccc(OC(F)(F)F)cc4)CC3)nc1)C2 [Compound 18]	7.8 ng/mL (≈ 0.015 µM)	64 times	7.8 ng/mL (≈ 0.015 µM)	128 times	7.8 ng/mL (≈ 0.015 µM)	64 times
CC1CN(c2ncc(CN[C@@H]3COc4nc([N+](=O)[O-])cn4C3)cn2)CCN1c1ccc(OC(F)(F)F)cc1 (stereo partly drawn) [Compound 19]	7.8 ng/mL (≈ 0.0146 µM)	64 times	7.8 ng/mL (≈ 0.0146 µM)	128 times	7.8 ng/mL (≈ 0.0146 µM)	64 times
CC1CN(c2ccc(OC(F)(F)F)cc2)CCN1c1ncc(CN[C@@H]2COc3nc([N+](=O)[O-])cn3C2)cn1 (stereo partly drawn) [Compound 20, (3S)—N-((6-(2-methyl-4-(4-(trifluoromethoxy)phenyl)piperazin-1-yl)pyrimidin-3-yl)methyl)-7-nitro-3,4-dihydro-2H-imidazo[2,1-b][1,3]oxazin-3-amine]	1.95 ng/mL (≈ 0.00365 µM)	256 times	1.95 ng/mL (≈ 0.00365 µM)	512 times	1.95 ng/mL (≈ 0.00365 µM)	256 times
N#CC1(c2ccc(OC(F)(F)F)cc2)CCN(c2ncc(CN[C@@H]3COc4nc([N+](=O)[O-])cn4C3)cn2)CC1 [Compound 24, (S)-1-(5-(((7-nitro-3,4-dihydro-2H-imidazo[2,1-b][1,3]oxazin-3-yl)amino)methyl)pyrimidin-2-yl)-4-(4-(trifluoromethoxy)phenyl)piperidine-4-carbonitrile]	3.9 ng/mL (≈ 0.00716 µM)	128 times	3.9 ng/mL (≈ 0.00716 µM)	256 times	3.9 ng/mL (≈ 0.00716 µM)	128 times
O=[N+]([O-])c1cn2c(n1)OC[C@@H](NCc1cnc(N3CCN(c4ccc(C(F)(F)F)cc4)CC3)nc1)C2 [Compound 31, (S)-2-nitro-N-((2-(4-(4-(trifluoromethyl)phenyl)piperazin-1-yl)pyrimidin-5-yl)methyl)-6,7-dihydro-5H-imidazo[2,1-b][1,3]oxazin-6-amine]	7.8 ng/mL (≈ 0.0155 µM)	–	7.8 ng/mL (≈ 0.0155 µM)	–	7.8 ng/mL (≈ 0.0155 µM)	–
Cc1nc(N2CCN(c3ccc(OC(F)(F)F)cc3)CC2)ncc1CN[C@@H]1COc2nc([N+](=O)[O-])cn2C1 [Compound 36]	7.8 ng/mL (≈ 0.0146 µM)	64 times	7.8 ng/mL (≈ 0.0146 µM)	128 times	7.8 ng/mL (≈ 0.0146 µM)	64 times
N#Cc1nc(N2CCN(c3ccc(OC(F)(F)F)cc3)CC2)ncc1CN[C@@H]1COc2nc([N+](=O)[O-])cn2C1 [Compound 40, (S)-5-(((2-nitro-6,7-dihydro-5H-imidazo[2,1-b][1,3]oxazin-6-yl)amino)methyl)-2-(4-(4-(trifluoromethoxy)phenyl)piperazin-1-yl)pyrimidine-4-carbonitrile]	7.8 ng/mL (≈ 0.0143 µM)	64 times	7.8 ng/mL (≈ 0.0143 µM)	128 times	7.8 ng/mL (≈ 0.0143 µM)	64 times
CN(Cc1cnc(N2CCN(c3ccc(OC(F)(F)F)cc3)CC2)nc1)[C@@H]1COc2nc([N+](=O)[O-])cn2C1 [Compound 44, (S)—N-methyl-2-nitro-N-((2-(4-(4-(trifluoromethoxy)phenyl)piperazin-1-yl)pyrimidin-5-yl)methyl)-6,7-dihydro-5H-imidazo[2,1-b][1,3]oxazin-6-amine]	1.95 ng/mL (≈ 0.00365 µM)	256 times	1.95 ng/mL (≈ 0.00365 µM)	512 times	1.95 ng/mL (≈ 0.00365 µM)	256 times
O=[N+]([O-])c1cn2c(n1)OC[C@@H](OCc1ccc(OC(F)(F)F)cc1)C2 [PA-824, reference compound]	500 ng/mL (≈ 1.39 µM)	–	1000 ng/mL (≈ 2.78 µM)	–	500 ng/mL (≈ 1.39 µM)	–
